The text below walks through data of patent publication US5725842A, “Method of administering amiloride” (priority 1996, dated 1998).

In data set [1] the test system is human cystic fibrosis airway epithilia. The data set is described as follows: Inhibition of Na+ transport (short circuit current, ISC) by amiloride hydrochloride dry powder in minature Ussing chamber. The data set is classed as cell-based. The text has this: Freshly excised human cystic fibrosis airway […] used to assay bioactive amiloride in solution. Freshly excised tissues is obtained from the Operating Room at The University of North Carolina Hospitals as previously described. R. Boucher, M. Stutts, M. Knowles, L. Cantley, and J. Gatzy, Na+ transport in cystic fibrosis respiratory epithelia. Abnormal basal rate and response to adenylate cyclase activation. J. Clin. Invest. 78, 1245-1252 (1986). The tissue preparation is mounted in a minature Ussing chamber that has 6 ml of solution bathing each (mucosal; basolateral) surface of the preparation. The solution is a Krebs-Ringer bicarbonate solution which approximates the ionic composition of plasma. This solution is warmed (37°) and circulated with a gas lift (95% oxygen, 5% CO2) system. Mixing time in this chamber has been previously measured by calibration with dyes (blue dextran) and is five seconds or less. The measurement of sodium transport rates is performed using a voltage clamp that is interfaced to the tissue preparation by pairs of potential sensing electrodes and current passing electrodes. The current required to null the transepithelial potential difference to zero is the short circuit current, which in human airway tissue is an accurate index of sodium transport rates. See R. Boucher et al., supra. […] This experiment was conducted as described above. […]

The nature of data set [2]: Timed release (dissolution) of respirable solid amiloride particles in Krebs-Ringer solution approximating plasma, assayed as bioactive amiloride. The data set is classed as physicochemical. To be noted: amiloride hydrochloride particles ~1 μm; aqueous solution approximating ionic strength of plasma. The text has this: Freshly excised human cystic fibrosis airway […] used to assay bioactive amiloride in solution. Freshly excised tissues is obtained from the Operating Room at The University of North Carolina Hospitals as previously described. R. Boucher, M. Stutts, M. Knowles, L. Cantley, and J. Gatzy, Na+ transport in cystic fibrosis respiratory epithelia. Abnormal basal rate and response to adenylate cyclase activation. J. Clin. Invest. 78, 1245-1252 (1986). The tissue preparation is mounted in a minature Ussing chamber that has 6 ml of solution bathing each (mucosal; basolateral) surface of the preparation. The solution is a Krebs-Ringer bicarbonate solution which approximates the ionic composition of plasma. This solution is warmed (37°) and circulated with a gas lift (95% oxygen, 5% CO2) system. Mixing time in this chamber has been previously measured by calibration with dyes (blue dextran) and is five seconds or less. The measurement of sodium transport rates is performed using a voltage clamp that is interfaced to the tissue preparation by pairs of potential sensing electrodes and current passing electrodes. The current required to null the transepithelial potential difference to zero is the short circuit current, which in human airway tissue is an accurate index of sodium transport rates. See R. Boucher et al., supra.

Data set [3] can be described thus: Size distribution of amiloride aerosol (Andersen impactor). Format: physicochemical. Conditions: MDI with spacer, 60 Lpm.
Method: In each test, the MDI aerosol was dispersed into the spacer via a 50 μl metering valve designed to deliver 1 mg amiloride per puff; however, the actual delivery was closer to 3 mg/puff as determined by spectrophotometric analysis of all amiloride collected as discussed below.
After each experiment, the apparatus was disassembled and each component washed individually with 50 ml of distilled water to remove amiloride and lactose particles.
For data set [4] the following is noted: in vivo.
The conditions of data set [5]: liquid aerosol, cystic fibrosis; cited from earlier work.
The next data set relates to airway epithelia. To be noted: applied to luminal membrane; cited from earlier work.
The conditions of data set [6]: in vivo, po; cited from earlier work.

Counter-ions that a name gives are not always drawn.

Turning to `N=C(N)NC(=O)c1nc(Cl)c(N)nc1N` [amiloride hydrochloride], in data set [1] (about 1 μm, at about sixty minutes), the “inhibition of ISC” value is on record as “Complete Inhibition”. The “time to complete inhibition of ISC” value in data set [1] (particle size about 1 μm, Krebs-Ringer bicarbonate, 37°) is “about sixty”. Further, the “timed release effect of respirable solid particles” value in data set [2] is “dissolved slowly over time”.

On to `N=C(N)NC(=O)c1nc(Cl)c(N)nc1N` [amiloride], for which the “mass median diameter (mmd)” value in data set [3] is “about 6 um”. Also, the maximum systemic dose in data set [4] is given as 20 mg daily. Besides, the clinical benefit entry in data set [5] is listed as “clinical benefit”. For the same compound, the “inhibition of Na+ and water absorption” value in the data set with airway epithelia was “inhibit”. Moreover, the “effective concentration in the airway lumen” value in data set [6] is “cannot be achieved”.
